Measured values taken from PubChem BioAssay AID2060488 (Molecular Pharmacology Branch, DTP, NCI, 2025).

System: 966289-007-R4-J1-PDC complex spheroid viability
Experiment: Anticancer human tumor 966289-007-R4-J1-PDC patient-derived pancreatic adenocarcinoma cell line growth inhibition [GQUAD]
Conditions: for IC50: curve of first compound; for viability, T/C: stronger effect = lower value; active means viability on the fitted dose curve at most 10% of control; inactive means the rest
From the text: DNA G-quadruplex Stabilizer Agents in Combinations in Complex Spheroids
A high-throughput screen of multi-cell type tumor spheroids was designed to identify active combinations of DNA G-quadruplex stabilizer agents and targeted small molecules. Complex spheroids include a stromal component modeled by human endothelial cells (HUVEC) and fibroblasts modeled by human mesenchymal stem cells (MSCs). The concentration ranges selected for each drug and investigational agent were based upon clinically achievable concentrations if the clinical Cmax of the agent was known.
Compounds. The drugs and investigational agents: pidnarulex (CX-5461; NSC782164), APTO-253 (NSC789042), BRACO-19 (NSC847499), peposertib (NSC802822), ceralasertib (NSC780249), elimusertib (NSC800525), camonsertib (NSC841442), AZD-1390 (NSC803789), olaparib (NSC753686), talazoparib (NSC767125), ART-558 (NSC835418), sotorasib (NSC818433), MRTX-1133 (NSC836407), SN-38 (NSC673596), topotecan (NSC609699), etoposide (NSC141540), doxorubicin (NSC123127), gemcitabine (NSC613327), 5-fluorouracil (NSC19893), paclitaxel (NSC125973), vemurafenib (NSC761431), panobinostat (NSC761190), R-306465 (JNJ-16241199; NSC773264), adavosertib (NSC754352), TP-3654 (NSC805149), carboplatin (NSC241240), KSQ-4279 (NSC840948), and staurosporine (NSC755774) were obtained from the National Cancer Institute (NCI) Developmental Therapeutics Program Chemical Repository (34). The FDA-approved anticancer drug set is available from the NCI Developmental Therapeutics Program. […] The stock solutions were prepared in dimethyl sulfoxide (DMSO, Sigma-Aldrich, St. Louis, MO, cat. D2650) at 800-fold the tested concentration and stored at -70 degrees C prior to their use. All drugs and investigational agents were tested over a range starting from a high concentration at or near the clinical Cmax and decreasing in half-log increments. If the clinical Cmax for an agent had not been determined, the highest concentration tested was 10 microM.
2.3 Cell Culture. All cells were maintained in an incubator at 37 degrees C and 5% CO2 with 95% humidity. The PDC lines were cultured according to standard operating procedures established by the NCI PDMR. All PDCs were thawed and cultured in Matrigel-coated flasks prepared with a working solution of 1X Ham's F-12 nutrient mix, without supplementation (Invitrogen, cat. 11765054), 100 U/mL penicillin-streptomycin (Invitrogen, cat. 15140122), and 2.5% Matrigel (Corning Inc., cat. 354248) for the first three passages. The 857933-349-R-J2-PDC line was cultured in 6C/Colon 1B media, which includes advanced DMEM/F-12 (Thermo Fisher Scientific, cat. 12634028), 10 mM HEPES (Thermo Fisher Scientific, cat. 15630080), 1X GlutaMAX supplement (Thermo Fisher Scientific, cat. 35050061), 0.1 mg/mL primocin (InvivoGen, cat. ant-pm-2), 10% defined fetal bovine serum, heat inactivated (HyClone Laboratories Inc., cat. SH30070.03HI), 50% L-WRN conditioned media (ATCC, cat. CRL-3276), 1.25 mM N-Acetyl-L-cysteine (Sigma-Aldrich, cat. A9165), 10 mM nicotinamide (Sigma-Aldrich, cat. N0636), 1X B-27 supplement (Thermo Fisher Scientific, cat. 17504044), 1X N-2 supplement (Thermo Fisher Scientific, cat. 17502048), 10 microM Y-27632 dihydrochloride (Tocris Bioscience, cat. 1254), and 50 ng/mL human EGF recombinant protein (Thermo Fisher Scientific, cat. PHG0311). The 485176-168-R4-J1-PDC line was cultured in Panc media, which includes all 6C/Colon 1B media components plus 100 ng/mL human FGF-10 (Thermo Fisher Scientific, cat. 100-26), 500 nM SB-431542 (Selleckchem, cat. S1067), and gastrin (Tocris, cat. 3006).
[…]

[1] = second compound 0.0316 µM, first compound 0.0316 µM
[2] = second compound 0.0316 µM, first compound 0.316 µM
[3] = second compound 0.1 µM, first compound 0.0316 µM
[4] = second compound 0.1 µM, first compound 0.316 µM
[5] = second compound 0.316 µM, first compound 0.0316 µM
[6] = second compound 0.316 µM, first compound 0.316 µM
[7] = second compound 1 µM, first compound 0.0316 µM
[8] = second compound 1 µM, first compound 0.316 µM
[9] = second compound 3.16 µM, first compound 0.0316 µM
[10] = second compound 3.16 µM, first compound 0.316 µM
[11] = second compound 10 µM, first compound 0.0316 µM
[12] = second compound 10 µM, first compound 0.316 µM
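Further: spheroids exposed to the agents for seven days before readout.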
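Wherever viability, T/C is given: percent viability relative to DMSO vehicle control wells taken as 100%.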

Cc1[nH]c2ccccc2c1CCNCc1ccc(/C=C/C(=O)NO)cc1 + Cc1cnc(CNC(=O)c2c(=O)c3ccc(N4CCCN(C)CC4)nc3n3c2sc2ccccc23)cn1
inactive: viability, T/C (second compound 0.0316 µM, first compound 0.000999 µM) 120% | viability, T/C (second compound 0.0316 µM, first compound 0.00316 µM) 109% | viability, T/C (second compound 0.0316 µM, first compound 0.00999 µM) 110% | viability, T/C [1] 72% | viability, T/C (second compound 0.1 µM, first compound 0.000999 µM) 36.1% | viability, T/C (second compound 0.1 µM, first compound 0.00316 µM) 41.1% | viability, T/C (second compound 0.1 µM, first compound 0.00999 µM) 39.4% | viability, T/C [3] 20.3% | viability, T/C (second compound 0.316 µM, first compound 0.000999 µM) 10.3%
< 0.999 nM: IC50 (second compound 0.1 µM) | IC50 (second compound 0.316 µM) | IC50 (second compound 1 µM) | IC50 (second compound 3.16 µM) | IC50 (second compound 10 µM)
active: viability, T/C (second compound 0.0316 µM, first compound 0.0999 µM) 7.63% | viability, T/C [2] 2.65% | viability, T/C (second compound 0.1 µM, first compound 0.0999 µM) 5.43% | viability, T/C [4] 2.01% | viability, T/C (second compound 0.316 µM, first compound 0.00316 µM) 10.7% | viability, T/C (second compound 0.316 µM, first compound 0.00999 µM) 9.3% | viability, T/C [5] 5.04% | viability, T/C (second compound 0.316 µM, first compound 0.0999 µM) 2.95% | viability, T/C [6] 1.25% | viability, T/C (second compound 1 µM, first compound 0.000999 µM) 7.03% | viability, T/C (second compound 1 µM, first compound 0.00316 µM) 5.38% | viability, T/C (second compound 1 µM, first compound 0.00999 µM) 5.15% | viability, T/C [7] 3.16% | viability, T/C (second compound 1 µM, first compound 0.0999 µM) 1.45% | viability, T/C [8] 0.33% | viability, T/C (second compound 3.16 µM, first compound 0.000999 µM) 3.98% | viability, T/C (second compound 3.16 µM, first compound 0.00316 µM) 4.39% | viability, T/C (second compound 3.16 µM, first compound 0.00999 µM) 3.78% | viability, T/C [9] 0.2% | viability, T/C (second compound 3.16 µM, first compound 0.0999 µM) 0.08% | viability, T/C [10] 0.8% | viability, T/C (second compound 10 µM, first compound 0.000999 µM) 0.11% | viability, T/C (second compound 10 µM, first compound 0.00316 µM) 0.57% | viability, T/C (second compound 10 µM, first compound 0.00999 µM) 0.17% | viability, T/C [11] 0.39% | viability, T/C (second compound 10 µM, first compound 0.0999 µM) 0.16% | viability, T/C [12] 0.17%
46.9 nM: IC50 (second compound 0.0316 µM)

Nc1ccn(C2OC(CO)C(O)C2(F)F)c(=O)n1 (centres undefined) + Cc1cnc(CNC(=O)c2c(=O)c3ccc(N4CCCN(C)CC4)nc3n3c2sc2ccccc23)cn1
< 31.6 nM: IC50 (second compound 0.0316 µM) | IC50 (second compound 0.1 µM) | IC50 (second compound 0.316 µM) | IC50 (second compound 1 µM) | IC50 (second compound 3.16 µM) | IC50 (second compound 10 µM)
active: viability, T/C [1] 2.51% | viability, T/C (second compound 0.0316 µM, first compound 0.1 µM) 0.72% | viability, T/C [2] 0.68% | viability, T/C (second compound 0.0316 µM, first compound 1 µM) 0.69% | viability, T/C (second compound 0.0316 µM, first compound 3.16 µM) 0.58% | viability, T/C (second compound 0.0316 µM, first compound 10 µM) 0.61% | viability, T/C [3] 4.19% | viability, T/C (second compound 0.1 µM, first compound 0.1 µM) 0.89% | viability, T/C [4] 0.87% | viability, T/C (second compound 0.1 µM, first compound 1 µM) 0.9% | viability, T/C (second compound 0.1 µM, first compound 3.16 µM) 0.77% | viability, T/C (second compound 0.1 µM, first compound 10 µM) 0.88% | viability, T/C [5] 5.63% | viability, T/C (second compound 0.316 µM, first compound 0.1 µM) 1.42% | viability, T/C [6] 1.15% | viability, T/C (second compound 0.316 µM, first compound 1 µM) 0.95% | viability, T/C (second compound 0.316 µM, first compound 3.16 µM) 1.35% | viability, T/C (second compound 0.316 µM, first compound 10 µM) 1.02% | viability, T/C [7] 3.58% | viability, T/C (second compound 1 µM, first compound 0.1 µM) 1.01% | viability, T/C [8] 0.82% | viability, T/C (second compound 1 µM, first compound 1 µM) 0.79% | viability, T/C (second compound 1 µM, first compound 3.16 µM) 0.88% | viability, T/C (second compound 1 µM, first compound 10 µM) 0.78% | viability, T/C [9] 2.86% | viability, T/C (second compound 3.16 µM, first compound 0.1 µM) 0.11% | viability, T/C [10] 0.1% | viability, T/C (second compound 3.16 µM, first compound 1 µM) 0.06% | viability, T/C (second compound 3.16 µM, first compound 3.16 µM) 0.32% | viability, T/C (second compound 3.16 µM, first compound 10 µM) 0.67% | viability, T/C [11] 0.04% | viability, T/C (second compound 10 µM, first compound 0.1 µM) 0.07% | viability, T/C [12] 0.09% | viability, T/C (second compound 10 µM, first compound 1 µM) 0.07% | viability, T/C (second compound 10 µM, first compound 3.16 µM) 0.92% | viability, T/C (second compound 10 µM, first compound 10 µM) 0.6%
